# Counter-ions that a name gives are not always drawn.
# Molecular target: ATM (Homo sapiens (Human), UniProt Q13315)
# Experiment: ATM in Cell Western Assay (pKAP1 in etoposide-treated MCF-7 cells)
# Format: cell-based
# Conditions: MCF-7 cells, etoposide 100 μM, 1 hr, pKAP1 readout
# In short: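 Cells received compounds in a 10-dose, 3-fold series from a 1 μM final top concentration, then 100 μM etoposide, for 1 hr at 37° C. They were then fixed with paraformaldehyde and permeabilized with 0.1% Triton X-100. After immunostaining, plates were scanned on an infrared imager.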
# ATM, sequence (Q13315 whole entry): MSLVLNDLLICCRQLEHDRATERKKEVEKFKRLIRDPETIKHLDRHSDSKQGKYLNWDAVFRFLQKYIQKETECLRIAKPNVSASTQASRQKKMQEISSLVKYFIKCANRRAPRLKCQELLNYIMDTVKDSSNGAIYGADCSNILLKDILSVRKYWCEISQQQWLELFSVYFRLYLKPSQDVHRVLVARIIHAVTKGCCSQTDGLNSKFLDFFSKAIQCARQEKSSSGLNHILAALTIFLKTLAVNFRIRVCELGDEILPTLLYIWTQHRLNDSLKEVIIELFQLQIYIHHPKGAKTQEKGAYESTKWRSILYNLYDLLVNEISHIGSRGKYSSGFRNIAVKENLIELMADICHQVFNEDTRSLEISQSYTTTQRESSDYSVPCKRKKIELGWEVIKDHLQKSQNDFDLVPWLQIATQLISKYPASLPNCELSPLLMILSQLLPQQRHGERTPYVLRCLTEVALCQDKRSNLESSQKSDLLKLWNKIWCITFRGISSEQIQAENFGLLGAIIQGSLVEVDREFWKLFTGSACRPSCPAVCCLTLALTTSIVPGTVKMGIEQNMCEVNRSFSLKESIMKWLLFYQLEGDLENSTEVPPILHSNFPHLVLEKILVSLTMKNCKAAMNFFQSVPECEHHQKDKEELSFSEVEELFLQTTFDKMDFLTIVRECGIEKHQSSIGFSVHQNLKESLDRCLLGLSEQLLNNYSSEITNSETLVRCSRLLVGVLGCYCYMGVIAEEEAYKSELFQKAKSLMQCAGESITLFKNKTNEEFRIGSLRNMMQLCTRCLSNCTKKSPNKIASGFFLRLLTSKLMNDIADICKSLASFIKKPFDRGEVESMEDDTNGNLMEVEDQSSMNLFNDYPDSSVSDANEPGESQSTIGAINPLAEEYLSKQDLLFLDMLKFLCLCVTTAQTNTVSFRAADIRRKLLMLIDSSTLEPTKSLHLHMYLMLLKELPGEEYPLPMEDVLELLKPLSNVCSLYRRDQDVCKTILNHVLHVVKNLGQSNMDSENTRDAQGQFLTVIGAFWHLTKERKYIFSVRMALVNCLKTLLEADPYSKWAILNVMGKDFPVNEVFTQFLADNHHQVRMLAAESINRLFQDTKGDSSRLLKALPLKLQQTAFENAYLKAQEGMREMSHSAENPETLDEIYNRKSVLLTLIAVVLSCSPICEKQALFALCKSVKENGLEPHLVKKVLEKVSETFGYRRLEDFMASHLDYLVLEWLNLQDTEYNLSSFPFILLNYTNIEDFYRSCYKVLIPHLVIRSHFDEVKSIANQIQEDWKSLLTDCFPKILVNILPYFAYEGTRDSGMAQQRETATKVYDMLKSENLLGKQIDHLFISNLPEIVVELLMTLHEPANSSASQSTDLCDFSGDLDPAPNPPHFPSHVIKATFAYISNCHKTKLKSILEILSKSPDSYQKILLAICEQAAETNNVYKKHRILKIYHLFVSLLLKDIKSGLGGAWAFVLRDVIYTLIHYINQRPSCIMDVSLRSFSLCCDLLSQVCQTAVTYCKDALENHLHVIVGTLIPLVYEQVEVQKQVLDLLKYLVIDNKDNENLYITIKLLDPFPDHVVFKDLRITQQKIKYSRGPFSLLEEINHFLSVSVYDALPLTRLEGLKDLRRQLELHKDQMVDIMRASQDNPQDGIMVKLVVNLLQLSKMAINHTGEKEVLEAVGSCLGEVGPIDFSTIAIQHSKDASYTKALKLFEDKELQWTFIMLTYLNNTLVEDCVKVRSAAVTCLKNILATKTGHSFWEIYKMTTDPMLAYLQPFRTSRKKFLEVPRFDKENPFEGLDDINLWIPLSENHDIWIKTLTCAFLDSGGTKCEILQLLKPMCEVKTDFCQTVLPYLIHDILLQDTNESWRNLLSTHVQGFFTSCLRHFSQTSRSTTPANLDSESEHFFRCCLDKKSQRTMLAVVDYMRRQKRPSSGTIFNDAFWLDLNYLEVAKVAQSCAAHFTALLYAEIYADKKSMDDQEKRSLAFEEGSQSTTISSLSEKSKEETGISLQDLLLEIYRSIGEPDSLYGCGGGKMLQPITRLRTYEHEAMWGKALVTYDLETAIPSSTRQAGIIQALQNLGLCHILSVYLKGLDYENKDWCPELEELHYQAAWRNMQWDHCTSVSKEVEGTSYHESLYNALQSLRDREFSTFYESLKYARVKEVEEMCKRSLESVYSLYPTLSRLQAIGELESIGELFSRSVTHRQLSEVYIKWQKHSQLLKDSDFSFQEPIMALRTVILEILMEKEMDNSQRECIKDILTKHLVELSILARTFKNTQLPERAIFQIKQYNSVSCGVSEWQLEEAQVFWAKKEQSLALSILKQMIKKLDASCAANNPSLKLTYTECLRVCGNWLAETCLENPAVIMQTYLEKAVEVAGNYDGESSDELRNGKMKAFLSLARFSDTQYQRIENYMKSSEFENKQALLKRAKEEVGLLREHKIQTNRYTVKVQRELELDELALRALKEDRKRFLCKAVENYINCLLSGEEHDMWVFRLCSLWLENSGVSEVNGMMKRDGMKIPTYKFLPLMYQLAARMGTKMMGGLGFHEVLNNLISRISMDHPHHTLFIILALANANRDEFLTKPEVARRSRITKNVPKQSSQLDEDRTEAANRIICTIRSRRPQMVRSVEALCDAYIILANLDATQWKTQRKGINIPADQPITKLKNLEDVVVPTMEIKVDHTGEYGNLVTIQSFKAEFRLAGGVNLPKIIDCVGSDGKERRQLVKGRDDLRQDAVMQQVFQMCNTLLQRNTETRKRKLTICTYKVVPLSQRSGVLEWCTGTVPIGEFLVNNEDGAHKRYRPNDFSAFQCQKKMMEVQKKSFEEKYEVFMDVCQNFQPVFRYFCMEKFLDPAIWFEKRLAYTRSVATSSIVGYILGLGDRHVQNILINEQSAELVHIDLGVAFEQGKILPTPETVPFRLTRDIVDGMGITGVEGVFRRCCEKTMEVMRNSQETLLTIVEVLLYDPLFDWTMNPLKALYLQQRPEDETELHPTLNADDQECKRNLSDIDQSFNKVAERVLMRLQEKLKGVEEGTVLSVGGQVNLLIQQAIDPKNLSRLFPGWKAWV
row,IC50 [nM],SMILES
1,1 to 100,"CN(C)CCCOc1ncc(-c2ccc3ncc4c(c3c2)C2(CC2)C(=O)N4C)cc1NS(=O)(=O)c1ccc(Cl)nc1 [Example 105, 6-Chloro-N-(2-(3-(dimethylamino)propoxy)-5-(3′-methyl-2′-oxo-2′,3′-dihydrospiro[cyclopropane-1,1′-pyrrolo[2,3-c]quinolin]-8′-yl)pyridin-3-yl)pyridine-3-sulfonamide]"
2,> 100,"CN(C)CCCOc1ncc(-c2ccc3ncc4c(c3c2)N(C)C2(CC2)C(=O)N4C)cc1NS(=O)(=O)c1ccccc1 [Example 74, N-(5-(1′,4′-Dimethyl-3′-oxo-34′-dihydro-1′H-spiro[cyclopropane-1,2′-pyrazino[2,3-c]quinolin]-9′-yl)-2-(3-(dimethylamino)propoxy)pyridin-3-yl) benzenesulfonamide]"
3,> 100,"CC1CCN(c2ncc(-c3ccc4ncc5c(c4c3)C3(CCC3)C(=O)N5C)cc2NS(C)(=O)=O)CC1 [Example 260, N-(5-(3′-Methyl-2′-oxo-2′,3′-dihydrospiro[cyclobutane-1,1′-pyrrolo[2,3-c]quinolin]-8′-yl)-2-(4-methylpiperidin-l-yl)Pyridin-3-yl)methanesulfonamide]"
4,> 100,"CN(C)CCCOc1ncc(-c2ccc3ncc4c(c3c2)C2(CC2)C(=O)N4C)cc1-c1ccccc1 [Example 72, 8′-(6-(3-(Dimethylamino)propoxy)-5-phenylpyridin-3-yl)-3′-methylspiro[cyclopropane-1,1′-pyrrolo[2,3-c]quinolin]-2′(3′-H)-one]"
5,> 100,"CN1C(=O)C2(CC2)c2c1cnc1ccc(-c3cnc4ccccc4c3)cc21 [Example 20, 3′-Methyl-8′-(quinolin-3-yl)spiro[cyclopropane-1,1′-pyrrolo[2,3-c]quinolin]-2′(3′-H)-one]"
6,1 to 100,"CCc1ncc(S(=O)(=O)Nc2cc(-c3ccc4ncc5c(c4c3)C3(CCC3)C(=O)N5C)cnc2OCCNC)s1 [Example 275, 2-Ethyl-N-(5-(3′-methyl-2′-oxo-2′,3′-dihydrospiro[cyclobutane-1,1′-pyrrolo[2,3-c]quinolin]-8′-yl)-2-(2-(methylamino)ethoxy)pyridin-3-yl)thiazole-5-sulfonamide]"
7,1 to 100,"CN(C)CCCOc1ncc(-c2ccc3ncc4c(c3c2)C2(CCC2)C(=O)N4C)cc1NS(=O)(=O)CCN1C(=O)c2ccccc2C1=O [Example 261, N-(2-(3-(dimethylamino)propoxy)-5-(3′-methyl-2′-oxo-2′,3′-dihydrospiro[cyclobutane-1,1′-pyrrolo[2,3-c]quinolin]-8′-yl)pyridin-3-yl)-2-(1,3-dioxoisoindolin-2-yl)ethane-1-sulfonamide]"
8,> 100,"CN1C(=O)C2(CCC2)c2c1cnc1ccc(-c3cnc(OCC(CO)N4CCCCC4)c(NS(C)(=O)=O)c3)cc21 (stereo not shown) [Example 284, N-(2-(3-Hydroxy-2-(piperidin-1-yl)propoxy)-5-(3′-methyl-2′-oxo-2′,3′-dihydrospiro[cyclobutane-1,1′-pyrrolo[2,3-c]quinolin]-8′-yl)pyridin-3-yl)methanesulfonamide]"

# Same assay, conditions: pKAP1 in etoposide-treated MCF-7 cells
row,IC50 [nM],SMILES
1,> 100,"CC(C)NCCOc1ncc(-c2cc3c4c(cnc3cc2F)N(C)C(=O)C42CN(C3CCNCC3)C2)cc1NS(C)(=O)=O [Example 501, N-(5-(7′-Fluoro-3′-methyl-2′-oxo-1-(piperidin-4-yl)-2′,3′-dihydrospiro[azetidine-3,1′-pyrrolo[2,3-c]quinolin]-8′-yl)-2-(2-(isopropylamino)ethoxy)pyridin-3-yl)methanesulfonamide]"
2,> 100,"CC(C)NCCOc1ncc(-c2cc3c(cc2F)ncc2c3[C@]3(C[C@@H](OC(C)c4ccccc4)C3)C(=O)N2C)cc1NS(C)(=O)=O (stereo partly drawn) [Example 398, trans-N-(5-(7′-Fluoro-3′-methyl-2′-oxo-3-(1-phenylethoxy)-2′,3′-dihydrospiro[cyclobutane-1,1′-pyrrolo[2,3-c]quinolin]-8′-yl)-2-(2-(isopropylamino)ethoxy)pyridin-3-yl)methanesulfonamide]"
3,> 100,"CC(C)NCCOc1ncc(-c2cc3c(cc2F)ncc2c3[C@]3(C[C@H](c4ccc(=O)[nH]c4)C3)C(=O)N2C)cc1NS(C)(=O)=O [Example 442, cis-N-(5-(7′-Fluoro-3′-methyl-2′-oxo-3-(6-oxo-1,6-dihydropyridin-3-yl)-2′,3′-dihydrospiro[cyclobutane-1,1′-pyrrolo[2,3-c]quinolin]-8′-yl)-2-(2-(isopropylamino)ethoxy)pyridin-3-yl)methanesulfonamide]"
4,1 to 100,"CCN1CC2(C1)C(=O)N(C)c1cnc3cc(F)c(-c4cnc(OCCNC(C)C)c(NS(C)(=O)=O)c4)cc3c12 [Example 482, N-(5-(1-Ethyl-7-fluoro-3′-methyl-2′-oxo-2′,3′-dihydrospiro[azetidine-3,1′-pyrrolo[2,3-c]quinolin]-8′-yl)-2-(2-(isopropylamino)ethoxy)pyridin-3-yl)methanesulfonamide]"
5,1 to 100,"CCOC[C@H]1C[C@@]2(C1)C(=O)N(C)c1cnc3cc(F)c(-c4cnc(OCCNC(C)C)c(NS(C)(=O)=O)c4)cc3c12 [Example 407, trans-N-(5-(3-(Ethoxymethyl)-7′-fluoro-3′-methyl-2′-oxo-2′,3′-dihydrospiro[cyclobutane-1,1′-pyrrolo[2,3-c]quinolin]-8′-yl)-2-(2-(isopropylamino)ethoxy)pyridin-3-yl)methanesulfonamide]"
6,1 to 100,"CC(C)NCCOc1ncc(-c2cc3c(cc2F)ncc2c3[C@]3(C[C@@H](N4CCCC4)C3)C(=O)N2C)cc1NS(C)(=O)=O [Example 468, trans-N-(5-(7′-Fluoro-3′-methyl-2′-oxo-3-(pyrrolidin-1-yl)-2′,3′-dihydrospiro[cyclobutane-1,1′-pyrrolo[2,3-c]quinolin]-8′-yl)-2-(2-(isopropylamino)ethoxy)pyridin-3-yl)methanesulfonamide]"
7,1 to 100,"CNS(=O)(=O)Nc1cc(-c2cc3c4c(cnc3cc2F)N(C)C(=O)C42CCC2)cnc1N1CC(N(C)C)C1 [Example 340, 8′-{6-[3-(Dimethylamino)azetidin-1-yl]-5-[(methylsulfamoyl)amino]pyridin-3-yl}-7′-fluoro-3′-methyl-2′,3′-dihydrospiro[cyclobutane-1,1′-pyrrolo[2,3-c]quinoline]-2′-one]"
8,1 to 100,"COc1ccc(N2CC3(C2)C(=O)N(C)c2cnc4cc(F)c(-c5cnc(OCCNC(C)C)c(NS(C)(=O)=O)c5)cc4c23)cc1OC [Example 546, N-(5-(1-(3,4-Dimethoxyphenyl)-7′-fluoro-3′-methyl-2′-oxo-2′,3′-dihydrospiro[azetidine-3,1′-pyrrolo[2,3-c]quinolin]-8′-yl)-2-(2-(isopropylamino)ethoxy)pyridin-3-yl)methanesulfonamide]"
9,1 to 100,Cc1cc(S(=O)(=O)Nc2cc(-c3cc4c5c(cnc4cc3F)N(C)C(=O)C53CN(c4ccccc4)C3)cnc2OCCNC(C)C)sn1 [Example 521]
10,> 100,"CN1C(=O)C2(CCC2)c2c1cnc1cc(F)c(-c3cnc(OCCNCC(F)F)c(NS(C)(=O)=O)c3)cc21 [Example 379, N-(2-(2-((2,2-Difluoroethyl)amino)ethoxy)-5-(7fluoro-3′-methyl-2′-oxo-2′,3′-dihydrospiro[cyclobutane-1,1′-pyrrole[2,3-c]quinolin]-8′-yl)pyridin-3-yl) methanesulfonamide]"
11,> 100,"CC(C)NCCOc1ncc(-c2cc3c4c(cnc3cc2F)N(C)C(=O)C42CN(C3CCN(C)CC3)C2)cc1NS(C)(=O)=O [Example 502, N-(5-(7′-Fluoro-3′-methyl-1-(1-methylpiperidin-4-yl)-2′-oxo-2′,3′-dihydrospiro[azetidine-3,1′-pyrrolo[2,3-c]quinolin]-8′-yl)-2-(2-(isopropylamino)ethoxy)pyridin-3-yl)methanesulfonamide]"
12,1 to 100,"CC(C)NCCOc1ncc(-c2cc3c(cc2F)ncc2c3[C@]3(C[C@@H](Oc4ccccc4)C3)C(=O)N2C)cc1NS(C)(=O)=O [Example 401, trans-N-(5-(7′-Fluoro-3′-methyl-2′-oxo-3-phenoxy-2′,3′-dihydrospiro[cyclobutane-1,1′-pyrrolo[2,3-c]quinolin]-8′-yl)-2-(2-(isopropylamino)ethoxy)pyridin-3-yl)methanesulfonamide]"
13,1 to 100,CN1C(=O)C2(CN(CC(F)(F)F)C2)c2c1cnc1ccc(-c3cnc(N4CC(N(C)C)C4)c(NS(C)(=O)=O)c3)cc21 [Example 480]
14,1 to 100,"CN1C(=O)C2(CCC2)c2c1cnc1ccc(-c3cnc(N4CC5CNCC5C4)c(NS(C)(=O)=O)c3)cc21 (stereo not shown) [Example 349, N-(2-(Hexahydropyrrolo[3,4-c]pyrrol-2(1H)-yl)-5-(3′-methyl-2′-oxo-2′,3′-dihydrospiro [cyclobutane-1,1′-pyrrolo[2,3-c]quinolin]-8′-yl)pyridin-3-yl) methanesulfonamide formate]"
15,> 100,"CC(C)NCCOc1ncc(-c2cc3c(cc2F)ncc2c3[C@]3(C[C@@H](N(C)c4ccccc4)C3)C(=O)N2C)cc1NS(C)(=O)=O [Example 464, trans-N-{5-(7′-Fluoro-3′-methyl-3-(methyl(phenyl)amino)-2′-oxo-2′,3′-dihydrospiro[cyclobutane-1,1′-pyrrolo[2,3-c]quinolin]-8′-yl)-2-(2-(isopropylamino)ethoxy)pyridin-3-yl)methanesulfonamide]"
16,> 100,"CN1C(=O)C2(CCC2)c2c1cnc1ccc(-c3cnc(N4CC5(CN(C(=O)OC(C)(C)C)C5)C4)c(NS(C)(=O)=O)c3)cc21 [Example 347, tert-Butyl 6-(5-(3′-methyl-2′-oxo-2′,3′-dihydrospiro [cyclobutane-1,1′-pyrrolo[2,3-c]quinolin]-8′-yl)-3-(methylsulfonamido)pyridin-2-yl)-2,6-diazaspiro[3.3] heptane-2-carboxylate]"

row,SMILES,IC50 [nM]
1,"CN1C(=O)C2(CCC2)c2c1cnc1cc(F)c(-c3cnc(OCCNCCF)c(NS(C)(=O)=O)c3)cc21 [Example 380, N-(5-(7′-Fluoro-3′-methyl-2′-oxo-2′,3′-dihydrospiro [cyclobutane-1,1′-pyrrolo[2.3-c]quinolin]-8′-yl)-2-(2-((2-fluoroethyl)amino)ethoxy)pyridin-3-yl) methanesulfonamide hydrochloride]",1 to 100

# Source: patent publication US12187742B2 (XRAD Therapeutics, Inc., priority 2018, dated 2025)
